Reference: US4277605A, “Chemical compounds” (priority 1980, dated 1981)

Tests used:
[1] = Analgetic activity, radiant heat method (Rat Tail Flick Test); format: in vivo, male Sprague-Dawley rats; details: Table I, oral, rats; for ED50: Rattus norvegicus, read-out: Analgetic Activity Rat Tail Flick ED50 (95% Confidence Limits)
Description: Analgetic activity was determined by the radiant heat method (Rat Tail Flick Test) of D'Amour and Smith [J. Pharm. Exp. Ther., 72, 74-79 (1941)] in Sprague-Dawley male rats (140-180 g). An all or none response was used to determine the dose of test material which produced at least a 100 percent increase in predose response time in 50 percent of the test animals (ED50). The ED50 values were based on at least 3 doses per drug (6 rats per dose level) and calculated by means of the Finney Dose Response procedure [Finney, D. J., Probit Analysis, University Press, Cambridge, England (1971)].
(§1) Morphine sulfate was dissolved in distilled water.

[2] = Suppression of withdrawal jumping due to abstinence in withdrawn morphine-dependent mice
[3] = Antidiarrheal activity, castor oil test in rats (modified Niemegeers); format: in vivo, male Sprague-Dawley rats; details: for ED50: Rattus norvegicus; for separation between antidiarrheal and analgetic activity (in words): from RAS; for RAS (Relative Antidiarrheal Specificity): Analgetic ED50 divided by the Antidiarrheal ED50, oral; for Antidiarrheal Activity ED50 (95% Confidence Limits) Castor Oil Test in Rats: 60 min
Description: A modification of the castor oil test described by Niemegeers [Arzneim.-Forsch., 22, 516-518 (1972)] was used. Male Sprague-Dawley rats (180-220 g) were dosed orally (in one case, subcutaneously) with a test compound or vehicle 1 hour before receiving a standard dose of castor oil orally (3 ml/rat). The rats were individually caged and examined for the presence of diarrhea hourly. Control animals had 100% incidence of diarrhea 1 hour after administering the castor oil. The percentage of rats protected from diarrhea was calculated 1 hour after the castor oil. Six rats were used per dose level.
as §1

[4] = Suppression of body weight loss due to abstinence in withdrawn morphine-dependent rats; details: oral administration, FIG. 1
[5] = high oral doses (40-60 mg); cited from earlier work
[6] = even in its salt forms; cited from earlier work
[7] = Table I, oral, rats, 1 hour after castor oil, read-out: Antidiarrheal Activity Castor Oil Test in Rats ED50 (95% Confidence Limits)
[8] = Table II, d,l-Ia(1) subcutaneous, Ib(1) isomers oral
[9] = Table II, separate test, oral administration

SMILES: CN1CC[C@]23CCC(=O)C[C@H]2[C@H]1Cc1ccc(O)cc13 (relative stereo) [d,l-Ib(1), d,l-3-Hydroxy-7-oxo-N-methylmorphinan]
- ED50 [1]: > 150 mg/kg
- Percent Suppression of Withdrawal Jumping ([2]; 9 mg/kg po): 0%
- Percent Suppression of Withdrawal Jumping ([2]; 27 mg/kg po): 0%
- suppressant action on withdrawal jumping (in words) ([2]; oral, doses as high as 27 mg/kg): No suppressant action
- ED50 ([3]; 1 h, Table II, separate test, oral administration, read-out: Antidiarrheal Activity ED50 (95% Confidence Limits) Castor Oil Test in Rats): 1.08 mg/kg
- ED50 [3, 7]: 1.41 mg/kg
- separation between antidiarrheal and analgetic activity (in words) ([3]; oral, rats): excellent separation between antidiarrheal and analgetic activity
- prevention of body weight loss due to morphine withdrawal / ability to substitute for morphine (in words) [4]: no significant prevention of body weight loss

SMILES: CN1CC[C@]23CCC(=O)C[C@@H]2[C@H]1Cc1ccc(O)cc13 (relative stereo) [d,l-Ia(1), d,l-3-Hydroxy-7-oxo-N-methylisomorphinan]
- ED50 ([3]; sc, 1 h, Table II, separate test, subcutaneous administration, read-out: Antidiarrheal Activity ED50 (95% Confidence Limits) Castor Oil Test in Rats): 0.56 mg/kg
- antidiarrheal potency (in words) [3, 8]: potent antidiarrheal agent

SMILES: CCOC(=O)C1(c2ccccc2)CCN(CCC(C#N)(c2ccccc2)c2ccccc2)CC1 [Diphenoxylate]
- typical opioid effects [5]: euphoria, suppression or morphine abstinence, and a morphine-like physical dependence after chronic administration
- solubility (in words) [6]: highly insoluble
- ED50 [1]: 11.2 mg/kg
- suppression of withdrawal jumping (in words) ([2]; oral dose of 9 mg/kg): suppressed withdrawal jumping
- RAS (Relative Antidiarrheal Specificity) ([3]; rats): 102
- ED50 [3, 7]: 0.11 mg/kg
- antidiarrheal potency (in words) ([3]; Table I, oral, rats): most potent antidiarrheal drug studied
- improvement of RAS over morphine ([3]; oral, rats): tenfold

SMILES: CN1CC[C@]23CCC(=O)C[C@H]2[C@H]1Cc1ccc(O)cc13 [l-Ib(1), l-3-Hydroxy-N-methyl-7-oxomorphinan]
- Antidiarrheal Activity ED50 (95% Confidence Limits) Castor Oil Test in Rats [3, 9]: 0.64 (0.46-0.86)
- antidiarrheal potency (in words) [3, 8]: most potent isomer

SMILES: CN1CC[C@]23c4c5ccc(O)c4O[C@H]2[C@@H](O)C=C[C@H]3[C@H]1C5 [Morphine SO4]
- Analgetic Activity Rat Tail Flick ED50 (95% Confidence Limits) [1]: 30.5 (26.3-35.0) mg/kg
- ED50, Suppression of Withdrawal Jumping ([2]; sc, limits (0.9-3.1) printed on next line): 1.8
- RAS (Relative Antidiarrheal Specificity) ([3]; rats): 14
- Antidiarrheal Activity Castor Oil Test in Rats ED50 (95% Confidence Limits) ([3]; Table I, oral, rats, 1 hour after castor oil): 2.2 (1.5-3.1) mg/kg
- separation between antidiarrheal and analgetic activity (in words) ([3]; oral, rats): poor separation between antidiarrheal and analgetic activity

SMILES: CN1CC[C@]23CCC(=O)C[C@H]2[C@H]1Cc1ccc(O)cc13 [d-Ib(1), d-3-Hydroxy-N-methyl-7-oxomorphinan]
- Antidiarrheal Activity ED50 (95% Confidence Limits) Castor Oil Test in Rats [3, 9]: < 1

SMILES: COc1ccc2c3c1O[C@H]1C(=O)CC[C@@]4(O)[C@@H](C2)N(C)CC[C@]314 [Oxycodone]
- Percent Suppression of Withdrawal Jumping ([2]; 10 mg/kg po): 100%
